{"source": "patent US20190174768A1", "about": "(priority 2016, published 2019)", "key": {"F. graminearum": {"system": "F. graminearum", "assay_type": "cell-based, Fusarium graminearum"}, "[1]": {"system": "Venturia inaequalis Strain EUB04", "test": "In planta test on apple plantlets against apple scab", "assay_type": "in vivo", "settings": "reference fungicide mode, D9 to D21", "description": "The in planta tests on apple plantlets were carried out according to the following protocol:\n2 modes tested: spraying of extract D at 5 g/L 2 hours before inoculation (ExtractBefore) and spraying of extract D at 5 g/L 3 hours after inoculation (ExtractAfter)\n3 control modes: • 2 untreated control modes (spraying of water on the same dates as the product) (WaterBefore and WaterAfter) • 1 mode with a reference fungicide (captan)\nArtificial inoculation of plants with a Venturia inaequalis strain at 100 000 spores/ml.\nScab symptoms noted at 4 dates post-inoculation (visual estimate of % scab area)\nBiological material: • Plantlets derived from roughly 3-week-old apple seedlings in soil balls—from pips taken from the Gala variety (apples harvested in an orchard planted with Gala and Elstar) • Venturia inaequalis spores on cellophane—Strain EUB04\n3 boxes of 12 plantlets for each mode\nD+9, D+14, D+17, D+21: Notation of percentage of leaf area affected (from 0 to 100% in 10% increments)\nSince the normality and homogeneity conditions of the variances of the residues were not met, a non-parametric Kruskal-Wallis test was performed. This test being significant, the medians of the different modes were compared pairwise using the Nemenyi test based on Tukey's distance. These analyses were carried out with the R software (version 3.1.2)."}}, "data": [{"smiles": "C=C/C=C/CC/C=C/C=C/C=C/CC/C=C/[C@H](O)[C@H](O)[C@@H]1O[C@@H]([C@H](O)[C@H](O)C(=C)CC[C@@H](O)[C@H]2C[C@@H](O)[C@@H](O)[C@H]([C@@H](O)[C@H](O)/C=C(\\C)CCC(O)CC(O)C(O)C(C)CC(O)C(O)CC(C)CCC(O)CC(=O)CC(O)CCCC(O)CCCCC(O)CO)O2)C[C@@H](O)[C@H]1O", "note": "(some centres unmarked) [amphidinol 18]", "values": [{"measurement": "antifungal activity against F. graminearum", "setting": "F. graminearum", "result": "has antifungal activity against F. graminearum"}]}, {"smiles": "O=C1C2CC=CCC2C(=O)N1SC(Cl)(Cl)Cl", "note": "(centres unmarked) [captan]", "values": [{"measurement": "scab development", "setting": "[1]", "result": "no scab development was observed"}]}]}
